# From patent US10973763B2, “Inhalable pharmaceutical compositions” (Berg LLC, priority 2011, dated 2021)
# “And” between values parts separate entries of the source, which are not always exact repeats. Equal values may be shown once.
# Legend:
# IL-12 = assay: Inflammatory response: BAL supernatant ELISA for IL-12; type: in vivo, mice; settings: pulmonary administration
# Description: The inflammatory response to the administration of hydrophobic bioactive agents (e.g., as discussed in connection with Example 1-3 above) was measured. Surgery is performed on sacrificed mice to expose the pleural cavity and trachea at the throat. […] An aliquot (about 0.75 mL) of phosphate buffered saline is instilled through the cannula into the lungs and removed to wash the bronchial and alveolar surfaces. This process is repeated for a total of three washes. The phosphate buffered saline containing cells is placed into centrifuge vials and centrifuged at about 3000 rpm (MiniSpin Plus, Eppendorf International, Hamburg, Del.). The supernatant is removed leaving the collected cells in the pellet. The supernatant from the BAL (Bronchoalveolar Lavage) is analyzed by enzyme-linked immunosorbent assay (ELISA) for IL-12 elevation (n=2 per sample tested).
# [1] = Drug loading suitable for continuous nebulization (Example 5); type: physicochemical; settings: 15-minute nebulization, Aeroneb Pro, DMPC 2.5% w/w
# Description: Formulations were prepared based upon the general methods discussed in connection with Examples 1 and 2. For this study, specific dispersions were prepared with 50 microfluidization discrete passes using 2.5% w/w of dimyristoyl phosphatidylcholine (DMPC) and 7.5%, 7.0%, 6.0%, 5.0%, or 4.0% w/w of CoQ10. The dispersions were then aerosolized within 24 hour using an Aeroneb Pro® nebulizer for 15 minute aerosolization event. The aerosolization profile was monitored via analysis of Total Aerosol Output (TAO) and using laser diffraction with a Malvern Spraytec® coupled with an inhalation cell as described above.
# [2] = Particle size distribution by laser diffraction (LD); type: physicochemical; settings: bulk CoQ10 powder
# Description: Bulk CoQ10 powder was dispersed in 20% (v/v) 1,3-propanediol in deionized water for analysis of particle size distribution. This dispersed sample was then added to a small cell apparatus in a Malvern Mastersizer S® instrument (Malvern Instruments, Worcestershire, UK) equipped with a 300 mm lens until 5-10% obscuration was attained. The internal phase and dispersant refractive indexes were 1.45 and 1.33, respectively.
# Particle size distribution testing of the dispersed formulations was performed with LD using a wet sample dispersion unit stirring at 1,000 rpm coupled to a Malvern Spraytec® (Malvern Instruments, Worcestershire, UK) equipped with a 300 mm lens. The dispersed formulations were added to distilled water (dispersant) until approximately 5% laser obscuration was attained. The internal phase and dispersant refractive indexes were set as 1.45 and 1.33, respectively. […] Span is a measurement of particle size distribution calculated as [Dv(90)−[…]]/Dv(50)]. […]
# Particle size distribution testing of the dispersed formulations was performed with LD using a wet sample dispersion unit stirring at 1,000 rpm coupled to a Malvern Spraytec® (Malvern Instruments, Worcestershire, UK) equipped with a 300 mm lens. […] Span is the measurement of particle size distribution calculated as [Dv(90)−Dv(10)]/Dv(50)]. […]
# [3] = CoQ10 level in lung tissue after nose-only aerosol dosing; type: in vivo, mice
# Description: (§1) Animals were caged in groups of 4 and maintained on a normal rodent chow diet with free access to water. Prior to dosing, CD-1® IGS ICR mice (Charles River Laboratories International, Inc., Wilmington, Mass., USA) were individually acclimatized for approximately 10 minutes per day for 3 days into restraint tubes, restricted by an anterior nose insert and a posterior holder. The dosing apparatus was placed inside a fume hood to collect escaping aerosol containing drug. To avoid influence from the airflow provided by the fume hood, an erlenmeyer container was placed at the end of the tubing system as a buffer. The airflow rate was set to 1 L/min to ensure proper drug aerosolization into the nose-only chamber (internal volume: 230 mL; diameter: 3.8 cm; length: 20.3 cm) using an Aeroneb Pro® vibrating-mesh nebulizer (Aerogen, Galway, Ireland). Following preparation, all formulations (saline control, DMPC, DPPC, and DSPC) were dosed for 15 minutes to mice weighing from 23 to 33 g each, at time of dosing. Each single-dose studied group consisted of thirty-six male animals. At each time point (0.5, 1, 3, 8, 24, and 48 hours after the end of the aerosolization event) six animals randomly selected from different dosing events of the same formulation were sacrificed by narcosis with carbon dioxide. As part of the collection process, blood was withdrawn by cardiac puncture, lungs were harvested, and a nasal wash was performed. […]
# For each experiment, CoQ10 levels were determined after liquid extraction using liquid chromatography coupled with tandem mass spectrometry (LC-MS/MS). […]
# Samples were tested for normality using the Shapiro Wilk test (p<0.05) and outliers were excluded from data analysis. Pharmacokinetic parameters were determined using Microsoft Office Excel 2007 software (Redmond, Wash.) with the add-in program PKSolver. […] At each time point, lung tissue samples were analyzed for statistical differences among different groups with One-Way ANOVA for significance (p<0.05). […]
# mice = assay: Survival and health of mice after nebulization event; type: in vivo; settings: 48 hours after the end of the nebulization event
# Description: as §1, with “dioxide.” for “dioxide. As part of the collection process, blood was withdrawn by cardiac puncture, lungs were harvested, and a nasal wash was performed.”
# [4] = previous studies, same nebulizer
smiles,measurement,setting,value
"COC1=C(OC)C(=O)C(C/C=C(\C)CC/C=C(\C)CC/C=C(\C)CC/C=C(\C)CC/C=C(\C)CC/C=C(\C)CC/C=C(\C)CC/C=C(\C)CC/C=C(\C)CCC=C(C)C)=C(C)C1=O [CoQ10, Coenzyme Q10]",IL-12 levels in BAL supernatant,IL-12; ELISA,not associated with a rise in IL-12 levels
same,lung inflammation,IL-12,does not cause lung inflammation
same,maximum nominal drug loading without intermittent mist,[1],4 % w/w
same,Dv(50) / particle size,[2],30 μm and 29.87 μm
same,time CoQ10 stays in the lungs at relatively high concentrations,[3]; after 15-minute aerosol dosing,up to 48 hours
same,lung Cmax relative to cyclosporine A dispersions,[3]; [4],≤ 75 fold
same,lung Cmax relative to itraconazole dispersions,[3]; [4],≤ 165 fold
same,survival and health of mice,mice,all mice were alive and presenting healthy signs
